Starred links: 1 amine or outer side, 2 acyl side, 3 side chain; linkers in the order of their positions; H or OH if unused. Positions of bridges follow the written chain, without caps; N, C: chain ends. Residues, ends and D or L forms follow the SMILES beside them. *: point of attachment. C20 diacid = O=C(O)CCCCCCCCCCCCCCCCCCC(=O)*; C18 diacid = O=C(O)CCCCCCCCCCCCCCCCC(=O)*; γGlu = O=C(O)[C@H](CCC(=O)[*:2])N[*:1]
Key:
[1] = Oral pharmacokinetic profiles in Beagle dogs (SNAC tablets); assay type: in vivo; conditions: oral tablet: 3 mg compound, 300 mg SNAC, 7.7 mg magnesium stearate
Experimental: To be able to evaluate oral exposure following tablet dosing, tablet compositions comprising the test substance and SNAC (sodium N-(8-(2-hydroxybenzoyl)amino)caprylate) were prepared by mixing test substance with roller compacted SNAC and magnesium stearate as, e.g., described in WO 2019/149880.
This assay was performed to measure the oral bioavailability of a compound. The assay determined the exposure of test compound following oral administration in Beagle dogs as described by relevant pharmacokinetic parameters and plasma concentration curves.
Preparation of tablets for oral administration: tablets containing test compound used for the assay described herein were immediate release SNAC-based tablets. The test compound was spray-dried as neutral sodium salt (pH 7-8). Dry granulation was carried out by roller compaction on a Gerteis MINI-PACTOR. Tablets containing 3 mg test compound, 300 mg sodium N-(8-(2-hydroxybenzoyl)amino)caprylate (SNAC) and 7.7 mg magnesium stearate were produced on at Kilian Style One using 7.2×12 mm punches.
Determination of the absorption following oral administration: eight (8) male Beagle dogs, 1 to 8 years of age and weighing approximately 10-15 kg at the start of the studies, were used. The dogs were group-housed in pens (12 hours light:12 hours dark), and fed individually and restrictedly once daily with Royal Canin Medium Adult dog (Royal Canin Products, China Branch, or Brogaarden A/S, Denmark). Exercise and group social were permitted daily, whenever possible. The dogs were used for repeated pharmacokinetic studies with a suitable wash-out period between successive dosing. An appropriate acclimatisation period was given prior to initiation of the first pharmacokinetic study. All handling, dosing and blood sampling of the animals were performed by trained and skilled staff. Before the studies the dogs were fasted overnight and from 0 to 4 h after dosing. Besides, the dogs were restricted to water 1 hour before dosing until 4 hours after dosing, but otherwise had ad libitum access to water during the whole period.
Tablets containing the test compound were administered in the following manner: 10 min prior to tablet administration the dogs were dosed subcutaneously with approximately 3.2 nmol/kg of glucagon. The tablets were placed in the back of the mouth of the dog to prevent chewing. The mouth was then closed, and 10 mL of tap water was given by a syringe to facilitate swallowing of the tablet. Blood was sampled at predefined time points for up till 288 hours after dosing to adequately cover the full plasma concentration-time absorption profile of the compound. For each blood sampling time point approximately 1.2 mL of whole blood was collected in a 1.5 mL EDTA coated tube, and the tube was gently turned to allowing mixing of the sample with the EDTA. Then, the blood samples were kept on ice until centrifugation (4 min, 4° C., 4000 rpm). Plasma was pipetted into Micronic tubes on dry ice and kept at −20° C. until analysis. Blood samples were taken as appropriate, for example from a venflon in the cephalic vein in the front leg for the first 2 hours and then with syringe from the jugular vein for the rest of the time points (the first few drops were allowed to drain from the venflon to avoid heparin saline from the venflon in the sample).
Bioanalysis was carried out as follows: plasma concentrations of test compound were assayed by plasma protein precipitation and analysed by liquid chromatography-mass spectrometry (LC-MS). Calibrators were prepared by spiking blank dog plasma with analytes to reach the final concentrations in the range typically from 0.5 to 200 nM. Calibrators, plasma blanks or study samples were prepared for LC-MS by protein precipitation by adding 3 volumes of ethanol followed by centrifugation at 4000 rpm at 4° C. for 1 h. The supernatant was diluted with 2 volumes of Milli-Q water containing 0.1% formic acid before injection on the LC-MS system. […]

[2] = target: T1, human calcitonin receptor (hCTR) (Homo sapiens, UniProt P30988); assay: Human calcitonin receptor (hCTR) in vitro potency assay, CRE-luciferase reporter in BHK cells; assay type: cell-based; conditions: BHK hCTR/CRE-Luc cells, 3 hours incubation, assay buffer with 1% ovalbumin; read-out: hCalcR potency, EC50
T1 construct: host or cells: BHK (Baby Hamster Kidney), Hollex-1 cell line
T1 sequence (P30988 25-474): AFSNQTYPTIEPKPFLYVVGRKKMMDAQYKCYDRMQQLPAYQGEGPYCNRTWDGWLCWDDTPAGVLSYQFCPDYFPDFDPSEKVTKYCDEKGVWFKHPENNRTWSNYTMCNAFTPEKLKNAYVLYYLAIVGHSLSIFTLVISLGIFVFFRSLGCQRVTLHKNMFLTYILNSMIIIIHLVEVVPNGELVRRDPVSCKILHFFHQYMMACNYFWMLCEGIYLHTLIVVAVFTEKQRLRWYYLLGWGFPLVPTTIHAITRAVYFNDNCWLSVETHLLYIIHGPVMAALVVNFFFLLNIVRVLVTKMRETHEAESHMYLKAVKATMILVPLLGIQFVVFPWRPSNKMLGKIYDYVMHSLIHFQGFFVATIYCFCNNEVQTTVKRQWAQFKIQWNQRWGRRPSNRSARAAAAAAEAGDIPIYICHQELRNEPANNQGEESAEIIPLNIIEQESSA
In short: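 BHK cells stably co-expressing human calcitonin receptor and a CRE-luciferase reporter, seeded the day before, were exposed to 7-fold serial dilutions (7 concentrations, often starting near 10 nM) in DMEM/HEPES/1% ovalbumin buffer for 3 h at 37 °C. Luminescence was then read after SteadyLite Plus addition.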

[3] = target: T2, human amylin receptor (hAMYR3) (Homo sapiens, UniProt O60896+P30988); assay: Human amylin receptor (hAMYR3) in vitro potency assay, CRE-luciferase reporter in BHK cells; assay type: cell-based; conditions: BHK hAMYR3/CRE-Luc cells, 3 hours incubation, assay buffer with 1% ovalbumin
T2 construct: host or cells: BHK (Baby Hamster Kidney), Hollex-1 cell line further transfected with RAMP3
T2 sequence (O60896 24-148, one chain of several): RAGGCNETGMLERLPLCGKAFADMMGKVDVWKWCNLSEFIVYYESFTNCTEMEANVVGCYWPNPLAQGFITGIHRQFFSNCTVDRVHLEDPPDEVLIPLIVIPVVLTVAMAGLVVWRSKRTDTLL
In short: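 BHK cells stably expressing human calcitonin receptor (a) plus RAMP3 and a CRE-luciferase reporter, seeded overnight, then exposed to 7-point 7-fold dilutions (often from ~10 nM) in DMEM/HEPES buffer with 1% ovalbumin for 3 h at 37 °C. Luciferase luminescence read after SteadyLite Plus addition.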

Row | EC50 [2] [pM] | EC50 [3] [pM] | Structure (SMILES) | Cmax/D [1] [kg/L] | half-life ([1]; male, dog, plasma, read-out: T½ (converted)) [h] | AUC/D [1] [kg·h/L]
1 |  |  | CC[C@H](C)[C@H](NC(=O)[C@@H]1CCCN1C(=O)CNC(=O)[C@H](Cc1ccccc1)NC(=O)[C@H](CC(N)=O)NC(=O)[C@H](CC(N)=O)NC(=O)[C@H](CO)NC(=O)[C@H](CO)NC(=O)[C@H](Cc1c[nH]cn1)NC(=O)[C@H](CCCNC(=N)N)NC(=O)[C@H](CC(C)C)NC(=O)[C@H](Cc1ccccc1)NC(=O)[C@H](CCC(=O)O)NC(=O)[C@H](C)NC(=O)[C@H](CC(C)C)NC(=O)[C@H](CCCNC(=N)N)NC(=O)[C@H](CCC(N)=O)NC(=O)[C@@H](NC(=O)[C@H](C)NC(=O)[C@@H]1CSSC[C@H](NC(=O)[C@H](CCCCN)NC(=O)CC[C@H](NC(=O)CCCCCCCCCCCCCCCCCCC(=O)O)C(=O)O)C(=O)N[C@@H](CC(N)=O)C(=O)N[C@@H]([C@@H](C)O)C(=O)N[C@@H](C)C(=O)N[C@@H]([C@@H](C)O)C(=O)N1)[C@@H](C)O)C(=O)N[C@@H](CC(C)C)C(=O)N1CCC[C@H]1C(=O)N1CCC[C@H]1C(=O)N[C@H](C(=O)N[C@@H](CCC(N)=O)C(=O)N[C@H](C(=O)NCC(=O)N[C@@H](CO)C(=O)N[C@@H](CC(N)=O)C(=O)N[C@H](C(=O)N1CCC[C@H]1C(N)=O)[C@@H](C)O)C(C)C)[C@@H](C)O [Compound 1, N^1Alpha-[(4S)-4-carboxy-4-(19-carboxynonadecanoylamino)butanoyl]-[Glu14,Arg17,Pro25,Pro28,Pro29,Gln31,Pro37]-human amylin, reference compound] ({C20 diacid-γGlu}-KCNTATCATQRLAEFLRHSSNNFGPILPPTQVGSNTP-NH2; disulfide 2-7) | 0.057 |  | 
2 | 1.76 | 1.06 | CC[C@H](C)[C@H](NC(=O)[C@@H]1CCCN1C(=O)CNC(=O)[C@H](Cc1ccccc1)NC(=O)[C@H](Cc1c[nH]cn1)NC(=O)[C@H](Cc1c[nH]cn1)NC(=O)[C@H](CC(C)C)NC(=O)[C@H](Cc1ccccc1)NC(=O)[C@H](CCC(=O)O)NC(=O)[C@H](C)NC(=O)[C@H](CC(C)C)NC(=O)[C@H](CCCNC(=N)N)NC(=O)[C@H](C)NC(=O)[C@@H](NC(=O)[C@H](CCC(N)=O)NC(=O)[C@H](C)NC(=O)[C@@H](NC(=O)[C@H](CO)NC(=O)[C@H](CC(C)C)NC(=O)[C@H](Cc1c[nH]cn1)NC(=O)[C@H](CO)NC(=O)[C@H](C)NC(=O)CC[C@H](NC(=O)CCCCCCCCCCCCCCCCC(=O)O)C(=O)O)[C@@H](C)O)[C@@H](C)O)C(=O)N[C@@H](CC(C)C)C(=O)N1CCC[C@H]1C(=O)N1CCC[C@H]1C(=O)N[C@H](C(=O)N[C@@H](CC(=O)O)C(=O)N[C@H](C(=O)NCC(=O)N[C@@H](CO)C(=O)N[C@@H](CCC(=O)O)C(=O)N[C@H](C(=O)N1CCC[C@H]1C(N)=O)[C@@H](C)O)C(C)C)[C@@H](C)O [Compound 43, N^1-[(4S)-4-carboxy-4-(17-carboxyheptadecanoylamino)butanoyl]-[Ala1,Ser2,His3,Leu4,Ser5,Ala7,Gln8,Ala10,Glu14,His17,Pro25,Pro28,Pro29,Asp31,Glu35,Pro37],des-(19-22)-human amylin] ({C18 diacid-γGlu}-ASHLSTAQTARLAEFLHHFGPILPPTDVGSETP-NH2) |  |  | 
3 | 2.53 | 1.58 | CC[C@H](C)[C@H](NC(=O)[C@@H]1CCCN1C(=O)CNC(=O)[C@H](Cc1ccccc1)NC(=O)[C@H](CC(N)=O)NC(=O)[C@H](CC(N)=O)NC(=O)[C@H](CO)NC(=O)[C@H](CO)NC(=O)[C@H](Cc1c[nH]cn1)NC(=O)[C@H](CCCNC(=N)N)NC(=O)[C@H](CC(C)C)NC(=O)[C@H](Cc1ccccc1)NC(=O)[C@H](CCC(=O)O)NC(=O)[C@H](C)NC(=O)[C@H](CC(C)C)NC(=O)[C@H](CCCNC(=N)N)NC(=O)[C@H](CCC(N)=O)NC(=O)[C@@H](NC(=O)[C@H](C)NC(=O)[C@@H]1CSSC[C@H](NC(=O)[C@H](CCCCN)NC(=O)CC[C@H](NC(=O)CCCCCCCCCCCCCCCCCCC(=O)O)C(=O)O)C(=O)N[C@@H](CC(N)=O)C(=O)N[C@@H]([C@@H](C)O)C(=O)N[C@@H](C)C(=O)N[C@@H]([C@@H](C)O)C(=O)N1)[C@@H](C)O)C(=O)N[C@@H](CC(C)C)C(=O)N1CCC[C@H]1C(=O)N1CCC[C@H]1C(=O)N[C@H](C(=O)N[C@@H](CC(N)=O)C(=O)N[C@H](C(=O)NCC(=O)N[C@@H](CO)C(=O)N[C@@H](CC(N)=O)C(=O)N[C@H](C(=O)N1CCC[C@H]1C(N)=O)[C@@H](C)O)C(C)C)[C@@H](C)O [cagrilintide, reference compound] |  |  | 

Row | Structure (SMILES) | EC50 [2] [pM] | EC50 [3] [pM] | Cmax/D [1] [kg/L] | half-life ([1]; male, dog, plasma, read-out: T½ (converted)) [h] | AUC/D [1] [kg·h/L]
4 | CC[C@H](C)[C@H](NC(=O)[C@@H]1CCCN1C(=O)CNC(=O)[C@H](Cc1ccccc1)NC(=O)[C@H](CC(N)=O)NC(=O)[C@H](CC(=O)O)NC(=O)[C@H](CO)NC(=O)[C@H](CO)NC(=O)[C@H](Cc1c[nH]cn1)NC(=O)[C@H](Cc1c[nH]cn1)NC(=O)[C@H](CC(C)C)NC(=O)[C@H](Cc1ccccc1)NC(=O)[C@H](CCC(=O)O)NC(=O)[C@H](C)NC(=O)[C@H](CC(C)C)NC(=O)[C@H](CCCNC(=N)N)NC(=O)[C@H](C)NC(=O)[C@@H](NC(=O)[C@H](CCC(N)=O)NC(=O)[C@H](C)NC(=O)[C@@H](NC(=O)[C@H](CO)NC(=O)[C@H](CC(C)C)NC(=O)[C@H](Cc1c[nH]cn1)NC(=O)[C@H](CO)NC(=O)[C@H](C)NC(=O)CC[C@H](NC(=O)CCCCCCCCCCCCCCCCCCC(=O)O)C(=O)O)[C@@H](C)O)[C@@H](C)O)C(=O)N[C@@H](CC(C)C)C(=O)N1CCC[C@H]1C(=O)N1CCC[C@H]1C(=O)N[C@H](C(=O)N[C@@H](CC(=O)O)C(=O)N[C@H](C(=O)NCC(=O)N[C@@H](CO)C(=O)N[C@@H](CC(N)=O)C(=O)N[C@H](C(=O)N1CCC[C@H]1C(N)=O)[C@@H](C)O)C(C)C)[C@@H](C)O [Compound 2, N^1-[(4S)-4-carboxy-4-(19-carboxynonadecanoylamino)butanoyl]-[Ala1,Ser2,His3,Leu4,Ser5,Ala7,Gln8,Ala10,Glu14,His17,Asp21,Pro25,Pro28,Pro29,Asp31,Pro37]-human amylin] ({C20 diacid-γGlu}-ASHLSTAQTARLAEFLHHSSDNFGPILPPTDVGSNTP-NH2) | 1.31 |  | 0.15 | 146 | 14.06

— US12116388B2, “Amylin receptor agonists” (Novo Nordisk A/S, priority 2022, dated 2024)
